Reference: patent US20090270443A1, “1-AMINO IMIDAZO-CONTAINING COMPOUNDS AND METHODS” (priority 2004, published 2009)

Compound | melting point [°C]
Cc1nc(N)c2ncn(NC3CCCCC3)c2c1C [Example 30, N^1-Cyclohexyl-6,7-dimethyl-1H-imidazo[4,5-c]pyridine-1,4-diamine] | 259 to 261
CCCCc1nc2c(N)nc(C)c(C)c2n1NC1CCCCC1 [Example 31, 2-Butyl-N^1-cyclohexyl-6,7-dimethyl-1H-imidazo[4,5-c]pyridine-1,4-diamine] | 160 to 162
